Results taken from US5397796A, “2,4-dioxoimidazolidine compounds and compositions, and processes for administering same” (Cassella AG, priority 1992, dated 1995).
Read-outs that look alike come from different tables or passages of the source.

Tests used:
[1] = tested on: gel-filtered human platelets; test: Inhibition of aggregation of gel-filtered human platelets after ADP or thrombin stimulation; assay type: cell-based
Experimental: (§1) The compounds are tested in particular for their inhibitory action in blood platelet aggregation and the adhesion of fibrinogen to blood platelets. Gel-filtered blood platelets from human donor blood are used, which are activated with ADP or thrombin.
As a functional test, the inhibition of aggregation of gel-filtered human platelets by the compounds according to the invention is measured after ADP or thrombin stimulation. The IC50 value of the inhibition is given.

[2] = biological target: T1, fibrinogen receptor (glycoprotein IIb/IIIa) (Homo sapiens, UniProt P05106+P08514); test: Inhibition of binding of 125I-fibrinogen to its receptor on intact, gel-filtered human platelets; settings: inhibition of 125I-fibrinogen binding, stimulation with ADP (10 μM), read-out: Ki (μM), ADP-stimulated
T1 construct: endogenous in cells; host or cells: gel-filtered human platelets from donor blood, stimulated with ADP (10 µM)
Experimental: as §1
The inhibition of the binding of fibrinogen to its receptor (glycoprotein IIb/IIIa) by the compounds according to the invention is tested on intact, gel-filtered human platelets. The Ki value of the inhibition of binding of ^125 I-fibrinogen after stimulation with ADP (10 μM) is given.

[3] = Platelet, ADP stimulation, read-out: IC50 (μM), ADP-stimulated
[4] = Platelet, thrombin stimulation, read-out: IC50 (μM), Thrombin-stimulated
[5] = ADP stimulation, read-out: IC50 (μM), ADP-stimulated
[6] = thrombin stimulation, read-out: IC50 (μM), Thrombin-stimulated

T1 sequence (P08514 32-887 limits assumed): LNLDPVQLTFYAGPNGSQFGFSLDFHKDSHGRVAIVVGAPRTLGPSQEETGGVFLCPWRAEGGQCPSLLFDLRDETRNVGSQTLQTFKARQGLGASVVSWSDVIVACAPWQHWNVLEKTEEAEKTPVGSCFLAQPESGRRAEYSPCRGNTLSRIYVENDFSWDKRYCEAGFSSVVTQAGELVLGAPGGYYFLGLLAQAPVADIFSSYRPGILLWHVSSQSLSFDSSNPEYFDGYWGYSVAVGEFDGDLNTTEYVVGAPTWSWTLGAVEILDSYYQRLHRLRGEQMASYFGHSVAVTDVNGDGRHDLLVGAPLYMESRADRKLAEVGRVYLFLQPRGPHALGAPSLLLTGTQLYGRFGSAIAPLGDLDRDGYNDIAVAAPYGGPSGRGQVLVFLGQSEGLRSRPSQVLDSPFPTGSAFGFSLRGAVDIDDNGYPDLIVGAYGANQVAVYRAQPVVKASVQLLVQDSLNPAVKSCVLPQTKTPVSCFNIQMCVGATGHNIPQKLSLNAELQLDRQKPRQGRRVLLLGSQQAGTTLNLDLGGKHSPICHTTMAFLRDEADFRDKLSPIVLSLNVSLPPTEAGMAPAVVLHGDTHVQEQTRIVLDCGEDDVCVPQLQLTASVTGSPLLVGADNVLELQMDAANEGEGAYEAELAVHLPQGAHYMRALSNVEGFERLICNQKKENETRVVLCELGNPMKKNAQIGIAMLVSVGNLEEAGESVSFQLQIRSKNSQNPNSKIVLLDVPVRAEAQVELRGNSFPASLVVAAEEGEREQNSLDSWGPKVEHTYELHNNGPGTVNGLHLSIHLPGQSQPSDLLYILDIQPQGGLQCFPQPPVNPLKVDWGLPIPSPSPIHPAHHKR
T1 sequence (P08514 891-1039 partner limits assumed): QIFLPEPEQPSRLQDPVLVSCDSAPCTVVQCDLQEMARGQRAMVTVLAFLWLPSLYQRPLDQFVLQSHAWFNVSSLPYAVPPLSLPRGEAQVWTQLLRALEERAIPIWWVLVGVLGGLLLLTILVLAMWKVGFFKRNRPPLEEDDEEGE
T1 sequence (P05106 27-788): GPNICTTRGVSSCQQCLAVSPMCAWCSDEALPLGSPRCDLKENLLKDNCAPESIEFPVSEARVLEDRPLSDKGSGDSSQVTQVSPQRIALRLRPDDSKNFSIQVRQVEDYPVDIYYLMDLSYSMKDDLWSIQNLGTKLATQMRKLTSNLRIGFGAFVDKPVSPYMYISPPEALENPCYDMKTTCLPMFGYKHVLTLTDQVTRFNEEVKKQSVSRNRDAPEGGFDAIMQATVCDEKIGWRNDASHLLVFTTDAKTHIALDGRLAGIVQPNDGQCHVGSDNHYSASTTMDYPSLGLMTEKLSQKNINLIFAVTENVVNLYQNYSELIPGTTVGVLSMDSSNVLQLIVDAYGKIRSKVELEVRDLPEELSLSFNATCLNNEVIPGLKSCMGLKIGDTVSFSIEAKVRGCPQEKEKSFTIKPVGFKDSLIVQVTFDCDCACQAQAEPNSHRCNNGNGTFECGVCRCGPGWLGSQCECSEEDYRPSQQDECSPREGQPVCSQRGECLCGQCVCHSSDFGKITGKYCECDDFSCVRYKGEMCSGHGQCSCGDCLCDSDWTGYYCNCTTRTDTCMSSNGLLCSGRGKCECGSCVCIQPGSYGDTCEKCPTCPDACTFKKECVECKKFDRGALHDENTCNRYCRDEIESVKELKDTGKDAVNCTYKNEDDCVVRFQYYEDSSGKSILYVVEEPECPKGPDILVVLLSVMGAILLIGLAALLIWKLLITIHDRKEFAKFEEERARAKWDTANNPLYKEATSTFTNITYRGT

Row | SMILES | IC50 [1, 3] [µM] | IC50 [1, 4] [µM] | Ki [2] [µM] | IC50 [1, 5] [µM] | IC50 [1, 6] [µM]
1 | N=C(N)NCCC[C@@H]1NC(=O)N(CC(=O)N[C@@H](CC(=O)O)C(=O)N[C@@H](Cc2ccccc2)C(=O)NCCCCCCCCN)C1=O [Example 3, (5-(S)-(3-Guanidinopropyl)-2,4-dioxoimidazolidin-3-yl)acetyl-L-aspartyl-L-phenylalanine (8-aminooctyl) amide acetate] | 5 | 3 | 3.21 |  | 
2 | N=C(N)NCCC[C@@H]1NC(=O)N(CC(=O)N[C@@H](CC(=O)O)C(=O)N[C@@H](Cc2ccccc2)C(=O)NCCCCCCN)C1=O [Example 2, (5-(S)-(3-Guanidinopropyl)-2,4-dioxoimidazolidin-3-yl)acetyl-L-aspartyl-L-phenylalanine (6-aminohexyl) amide acetate] | 3 | 3.5 | 2.44 |  | 
3 | N=C(N)c1ccc(CC2NC(=O)N(CC(=O)N[C@@H](CC(=O)O)C(=O)N[C@@H](Cc3ccccc3)C(=O)NCCCCN)C2=O)cc1 (stereo partly drawn) [Example 4, (5-(R,S)-(4-Formamidinobenzyl)-2,4-dioxoimidazolidin-3-yl)acetyl-L-aspartyl-L-phenylalanine (4-aminobutyl) amide acetate] |  |  | 0.32 | 0.45 | 1
4 | N=C(N)NCCC[C@@H]1NC(=O)N(CC(=O)N[C@@H](CC(=O)O)C(=O)N[C@@H](Cc2ccccc2)C(=O)NCCCCN)C1=O [Example 1, (5-(S)-(3-Guanidinopropyl)-2,4-dioxoimidazolidin-3-yl)acetyl-L-aspartyl-L-phenylalanine (4-aminobutyl) amide acetate] | 1.5 | 2 | 2.5 |  | 
5 | N=C(N)c1ccc(CC2NC(=O)N(CC(=O)N[C@@H](CC(=O)O)C(=O)N[C@@H](CCCCN)C(=O)NCCCCN)C2=O)cc1 (stereo partly drawn) [Example 7, (5-(R,S)-(4-Formamidino-benzyl)-2,4-dioxoimidazolidin-3-yl)acetyl-L-aspartyl-L-lysine (4-aminobutyl) amide] |  |  | 0.17 | 0.25 | 0.6
